According to patent US20160346320A1, “SUBSTANCE FOR INHIBITING TISSUE CALCIFICATION, TISSUE FIBROSATION AND AGE-RELATED DISEASES” (Fresenius Kabi Deutschland GmbH, priority 2013, published 2016):
Entries after “also recorded” stand apart in the source; their conditions may differ.

Experiments:
TGFβ1 mRNA = format: cell-based, human
NFAT5 [1] = assay: NFAT5 expression in aortas of klotho mice; format: in vivo; settings: NH4Cl 0.28 M in drinking water
[2] = test system: alkaline phosphatase (ALP) mRNA; format: cell-based, human
Runx2 mRNA = format: cell-based, human
SOX9 = SOX9 expression in HAoSMCs, quantitative RT-PCR; format: cell-based, human; settings: NH4Cl 500 μM
Description: (§1) The following experimental studies were executed: Primary human aortic smooth muscle cells (HAoSMCs, Invitrogen) were cultivated in Waymouth's MB 752/1 medium and Ham's F12 nutrient mixture (1:1, Gibco, Life Technologies) with the addition of 10% FBS (Gibco, Life Technologies). In all experiments, confluent HAoSMCs, passages 4 to 11, were used. The cells were treated for 24 hours with 2 mM β-glycerophosphate (Sigma-Aldrich) with or without simultaneous addition of 0.5 mM ammonium salts or 100 μM chloroquine diphosphate (Sigma-Aldrich). Quantitative RT-PCR (real time polymerase chain reaction) were carried out, as described previously (Voelkl, J., Alesutan, I., Leibrock, C. B., Quintanilla-Martinez, L., Kuhn, V., Feger, M., Mia, S., Ahmed, M. S., Rosenblatt, K. P., Kuro, O., Lang, F.: Spironolactone ameliorates PIT1-dependent vascular osteoinduction in klotho-hypomorphic mice. J. Clin Invest 2013; February 1; 123(2):812-22). For this, HAoSMCs were washed and total RNA were isolated using Trifast reagent (Peqlab) according to the directions from the manufacture. […] The total RNA were likewise isolated with Trifast reagent (Peqlab) in accordance with the directions from the manufacture. In each case, 2 μg RNA of the human as well as the murine samples were used for the reverse transcription of the RNA with oligo(dT)12-18 primers (Invitrogen) and SuperScripIII Reverse Transcriptase (Invitrogen). Quantitative real-time PCR were carried out with an iCycler iQ™ Real-Time PCR Detection System (Bio-Rad Laboratories) and iQ™ Sybr Green Supermix (Bio-Rad Laboratories) according to the manufacturer's instructions. The following primers were used (5′ orientation): […]
(§2) The specificity of the PCR products was checked by means of melting curve analysis and agarose gel electrophoresis. All PCRs were each carried out twice, and the multiple mRNA quantities were calculated by means of the […] methods with GAPDH as the internal reference.

NFAT5 [3] = assay: NFAT5 expression in HAoSMCs, quantitative RT-PCR; format: cell-based, human; settings: NH4Cl 500 μM
Description: as §1, §2

[4] = growth and body weight of klotho mice; format: in vivo; settings: for body weight / growth deficit: NH4Cl 0.28 M or acetazolamide 800 mg/l in drinking water
[5] = blood chemistry: plasma concentrations in klotho mice; format: in vivo; settings: NH4Cl 0.28 M or acetazolamide 800 mg/l in drinking water
[6] = HAoSMCs transfected with NFAT5, 2 mM β-glycerophosphate
[7] = HAoSMCs transfected with empty vectors, 2 mM β-glycerophosphate
[8] = HAoSMCs, 2 mM β-glycerophosphate

Molecule | TGFβ1 mRNA expression increase (TGFβ1 mRNA) | ALP mRNA expression increase [2] | Runx2 mRNA expression increase (Runx2 mRNA) | body weight [4] | growth deficit [4] | other results
CC(O)C(=O)O.N (stereo not shown) [ammonium lactate, Ammonium lactate] | inhibit the formation of TGFβ1; also recorded: lessened | – | – | – | – | –
Ammonium citrate | inhibit the formation of TGFβ1; also recorded: lessened | – | – | – | – | –
Cl.N [ammonium chloride, Ammonium chloride] | inhibit the formation of TGFβ1; also recorded: prevented | reduce the expression; also recorded: suppression of the expression increase | inhibit the expression; also recorded: suppressed | nearly entirely neutralize the weight deficiency | nearly entirely neutralized | expression of NFAT5 in aortas (NFAT5 [1]): normalization of the transcription level; expression of SOX9 (SOX9; [6]): prevents the effect of NH4Cl; also recorded: remained high; expression of SOX9 (SOX9; [7]): sink back to a normal level; transcription level of SOX9 (SOX9; [8]): reduced the expression; expression of NFAT5 (NFAT5 [3]; [6]): remained high; expression of NFAT5 (NFAT5 [3]; [7]): sink back to a normal level; transcription level of NFAT5 (NFAT5 [3]; [8]): reduced the expression; also recorded: reverse the increase; growth ([4]; wild mice (klotho^+/+), NH4Cl 0.28 M in drinking water): no growth stimulation
CC(=O)Nc1nnc(S(N)(=O)=O)s1 [acetazolamide] | – | – | – | could be increased | could not be fully compensated | concentration of matrix gla protein (MGP) in plasma [5]: fully normalize
CCN(CC)CCCC(C)Nc1ccnc2cc(Cl)ccc12 (racemic) [chloroquine, (RS)—N′-(7-chloroquinoline-4-yl)-N,N-diethyl-pentane-1,4-diamine] | – | reduce the expression; also recorded: suppression of the ALP mRNA expression increase | – | – | – | –
N.N.O=S(=O)(O)O [ammonium sulfate, Ammonium sulfate] | inhibit the formation of TGFβ1; also recorded: lessened | reduce the expression; also recorded: suppression of the expression increase | inhibit the expression; also recorded: suppressed | – | – | –
